Experimental findings from patent US5840684A, “Glycopeptide antibiotic derivatives” (Eli Lilly and Company, priority 1995, dated 1998) are described below.

≈ marks a conversion by molar mass, not a printed value. Where only a bound is given, the exact number is not on record here.

For experiment [1], the system named is vancomycin-susceptible enterococci. As to the kind of experiment: broth micro-dilution, mean geometric MIC. It is filed as cell-based, Enterococcus faecium and Enterococcus faecalis. The following applies: enterococci, 24-hour incubation.
Experiment [2] deals with Staphylococcus aureus 446. Nature of the experiment: broth micro-dilution MIC. It is filed as cell-based. The method, then:
(§1) The MIC's were determined using a standard broth micro-dilution assay.

Experiment [3] deals with Staphylococcus aureus SA1199. Nature of the experiment: broth micro-dilution MIC. It is filed as cell-based. Here is the method:
as §1

For experiment [4], the system named is Streptococcus pyogenes C203. Nature of the experiment: broth micro-dilution MIC. It is filed as cell-based. Here is the method: as §1
Experiment [5] concerns Staphylococcus aureus X778. Nature of the experiment: broth micro-dilution MIC. It is filed as cell-based. Here is the method:
as §1

Experiment [6] concerns Staphylococcus aureus 447. As to the kind of experiment: broth micro-dilution MIC. It is filed as cell-based. Here is the method: as §1
For experiment [7], the system named is Entercoccus faecium 180-1. As to the kind of experiment: broth micro-dilution MIC. It is filed as cell-based. Here is the method:
as §1

For experiment [8], the system named is Staphylococcus aureus X400. As to the kind of experiment: broth micro-dilution MIC. It is filed as cell-based. The method, then:
as §1

A further experiment has as its system Entercoccus faecium 276. Nature of the experiment: broth micro-dilution MIC. It is filed as cell-based. Here is the method: as §1
The test system of experiment [9] is Staphylococcus aureus SA1199A. Nature of the experiment: broth micro-dilution MIC. It is filed as cell-based. Here is the method:
as §1

Experiment [10] has as its system Staphylococcus aureus 491. Nature of the experiment: broth micro-dilution MIC. It is filed as cell-based. The method, then: as §1
The subject of experiment [11] is Staphylococcus aureus 489. Nature of the experiment: broth micro-dilution MIC. It is filed as cell-based. The method, then: as §1
Experiment [12] relates to Haemophilus influenzae RD. As to the kind of experiment: broth micro-dilution MIC. It is filed as cell-based. The conditions noted are these: Haemophilus influenzae RD. Here is the method:
(§2) The formula I compounds have in vitro and in vivo activity against Gram-positive pathogenic bacteria. The MIC's were determined using a standard broth micro-dilution assay.

The subject of the next experiment is Escherichia coli EC14. Nature of the experiment: broth micro-dilution MIC. It is filed as cell-based. The method, then:
as §2

Experiment [13] concerns Streptococcus pneumoniae P1. Nature of the experiment: broth micro-dilution MIC. It is filed as cell-based. The method, then: as §2
In experiment [14] the test system is Staphylococcus haemolyticus 415. Nature of the experiment: broth micro-dilution MIC. It is filed as cell-based. Here is the method:
as §2

In experiment [15] the test system is Staphylococcus epidermidis 270. Nature of the experiment: broth micro-dilution MIC. It is filed as cell-based. The method, then: as §2
For a further experiment, the system named is Entercoccus faecium 180. Nature of the experiment: broth micro-dilution MIC. It is filed as cell-based. The following applies: Entercoccus faecium 180. Here is the method:
as §2

The subject of experiment [16] is Enterococcus gallinarum 245. As to the kind of experiment: broth micro-dilution MIC. It is filed as cell-based. The following applies: Enterococcus gallinarum 245. The method, then:
as §2

In the next experiment the test system is Entercoccus faecium 2041. Nature of the experiment: broth micro-dilution MIC. It is filed as cell-based. The conditions noted are these: Entercoccus faecium 2041. The method, then:
as §2

In experiment [17] the test system is Staphylococcus haemolyticus 105. Nature of the experiment: broth micro-dilution MIC. It is filed as cell-based. The method, then:
as §2

Experiment [18] concerns Staphylococcus aureus SA1199B. It is filed as cell-based. The method, then: as §1
The subject of experiment [19] is vancomycin-resistant enterococci. Nature of the experiment: broth micro-dilution, mean geometric MIC. The following applies: enterococci, 24-hour incubation. It is filed as cell-based, Enterococcus faecium and Enterococcus faecalis.
Experiment [20] concerns Staphylococcus aureus S13E. It is filed as cell-based. The method, then:
as §1

Regarding `CNC(CC(C)C)C(=O)NC1C(=O)NC(CC(N)=O)C(=O)NC2C(=O)NC3C(=O)NC(C(=O)NC(C(=O)O)c4cc(O)cc(O)c4-c4cc3ccc4O)C(OC3CC(C)(NCc4ccc([N+](=O)[O-])cc4)C(O)C(C)O3)c3ccc(c(Cl)c3)Oc3cc2cc(c3OC2OC(CO)C(O)C(O)C2OC2CC(C)(NCc3ccc([N+](=O)[O-])cc3)C(O)C(C)O2)Oc2ccc(cc2Cl)C1O` (centres unmarked) [Compound 245], in experiment [1], the “mean geometric MIC, Vancomycin Sensitive Strains” value was determined as 0.38 µg/mL. Also, the MIC in experiment [2] is not above 0.06 µg/mL; in experiment [3], 0.25 µg/mL (≈ 0.134 µM); in [4], 2 µg/mL (≈ 1.07 µM); in experiment [5], not above 0.06 µg/mL; in experiment [6], not above 0.06 µg/mL; in experiment [7], not above 0.06 µg/mL. Further, the MIC in experiment [8] was not above 0.06 µg/mL; against Entercoccus faecium 276, not above 0.06 µg/mL; in experiment [9], not above 0.06 µg/mL; in experiment [10], 0.5 µg/mL (≈ 0.268 µM); in experiment [11], not above 0.06 µg/mL; in [12], more than 64 µg/mL. The MIC was 0.5 µg/mL (≈ 0.268 µM) with Escherichia coli EC14; 1 µg/mL (≈ 0.537 µM) in experiment [13]; 8 µg/mL (≈ 4.29 µM) in experiment [14]; 0.5 µg/mL (≈ 0.268 µM) in experiment [15]; 2 µg/mL (≈ 1.07 µM) against Entercoccus faecium 180; not above 0.06 µg/mL in experiment [16]. Moreover, the MIC against Entercoccus faecium 2041 is not above 0.06 µg/mL; in experiment [17], 1 µg/mL (≈ 0.537 µM); in experiment [18], not above 0.06 µg/mL. Moreover, the “mean geometric MIC, Vancomycin Resistant Strains” value in experiment [19] was determined as 13 µg/mL.
As for `CC(C)CC(C(=O)NC1C(=O)NC(CC(N)=O)C(=O)NC2C(=O)NC3C(=O)NC(C(=O)NC(C(=O)O)c4cc(O)cc(O)c4-c4cc3ccc4O)C(OC3CC(C)(N)C(O)C(C)O3)c3ccc(c(Cl)c3)Oc3cc2cc(c3OC2OC(CO)C(O)C(O)C2OC2CC(C)(NCc3ccc(Oc4ccccc4)cc3)C(O)C(C)O2)Oc2ccc(cc2Cl)C1O)N(C)Cc1ccc(Oc2ccccc2)cc1` (centres unmarked) [Compound 247], in experiment [1], the “mean geometric MIC, Vancomycin Sensitive Strains” value came out at 0.29 µg/mL. Besides, the MIC in experiment [2] is 0.5 µg/mL (≈ 0.256 µM); in experiment [3] it was 1 µg/mL (≈ 0.511 µM); in experiment [4], not above 0.06 µg/mL; in experiment [5], 0.5 µg/mL (≈ 0.256 µM); in [6], 1 µg/mL (≈ 0.511 µM); in [7], not above 0.06 µg/mL. Moreover, the MIC was 0.5 µg/mL (≈ 0.256 µM) in experiment [8]; 0.25 µg/mL (≈ 0.128 µM) against Entercoccus faecium 276; not above 0.06 µg/mL in experiment [9]; 0.5 µg/mL (≈ 0.256 µM) in experiment [10]; 0.25 µg/mL (≈ 0.128 µM) in experiment [11]; more than 64 µg/mL in [12]. Besides, the MIC against Escherichia coli EC14 was more than 64 µg/mL; in [13], not above 0.06 µg/mL; in experiment [14], 2 µg/mL (≈ 1.02 µM); in experiment [15], 1 µg/mL (≈ 0.511 µM); against Entercoccus faecium 180, 0.5 µg/mL (≈ 0.256 µM); in [16], 0.125 µg/mL (≈ 0.0639 µM). In addition, the MIC was 0.125 µg/mL (≈ 0.0639 µM) against Entercoccus faecium 2041, 1 µg/mL (≈ 0.511 µM) in [17], 0.5 µg/mL (≈ 0.256 µM) in experiment [20] and 0.5 µg/mL (≈ 0.256 µM) in experiment [18]. The “mean geometric MIC, Vancomycin Resistant Strains” value in experiment [19] was found to be 2.4 µg/mL.
For `CNC(CC(C)C)C(=O)NC1C(=O)NC(CC(N)=O)C(=O)NC2C(=O)NC3C(=O)NC(C(=O)NC(C(=O)O)c4cc(O)cc(O)c4-c4cc3ccc4O)C(OC3CC(C)(NCc4ccc(-c5ccccc5)cc4)C(O)C(C)O3)c3ccc(c(Cl)c3)Oc3cc2cc(c3OC2OC(CO)C(O)C(O)C2OC2CC(C)(NCc3ccc(-c4ccccc4)cc3)C(O)C(C)O2)Oc2ccc(cc2Cl)C1O` (centres unmarked) [Compound 248], the “mean geometric MIC, Vancomycin Sensitive Strains” value in experiment [1] turned out to be 0.66 µg/mL. Besides, the MIC in [2] is 2 µg/mL (≈ 1.04 µM); in experiment [3] it was 1 µg/mL (≈ 0.52 µM); in [4] it was not above 0.06 µg/mL; in [5], 4 µg/mL (≈ 2.08 µM); in [6] it was 4 µg/mL (≈ 2.08 µM); in experiment [7] it was not above 0.06 µg/mL. Moreover, the MIC in experiment [8] is 4 µg/mL (≈ 2.08 µM); against Entercoccus faecium 276, 2 µg/mL (≈ 1.04 µM); in experiment [9] it was 1 µg/mL (≈ 0.52 µM); in experiment [10], 1 µg/mL (≈ 0.52 µM); in experiment [11], 2 µg/mL (≈ 1.04 µM); in [12], more than 64 µg/mL. Besides, the MIC with Escherichia coli EC14 was more than 64 µg/mL; in [13] it was not above 0.06 µg/mL; in [14], 4 µg/mL (≈ 2.08 µM); in experiment [15] it was 0.5 µg/mL (≈ 0.26 µM); against Entercoccus faecium 180, 0.25 µg/mL (≈ 0.13 µM); in [16], 4 µg/mL (≈ 2.08 µM). The MIC with Entercoccus faecium 2041 came to 1 µg/mL (≈ 0.52 µM); in [17], 2 µg/mL (≈ 1.04 µM); in experiment [20] it was 0.5 µg/mL (≈ 0.26 µM); in experiment [18], 8 µg/mL (≈ 4.16 µM). The “mean geometric MIC, Vancomycin Resistant Strains” value in experiment [19] is 2 µg/mL.
On to `CC(C)CC(C(=O)NC1C(=O)NC(CC(N)=O)C(=O)NC2C(=O)NC3C(=O)NC(C(=O)NC(C(=O)O)c4cc(O)cc(O)c4-c4cc3ccc4O)C(OC3CC(C)(NCc4ccc(-c5ccccc5)cc4)C(O)C(C)O3)c3ccc(c(Cl)c3)Oc3cc2cc(c3OC2OC(CO)C(O)C(O)C2OC2CC(C)(NCc3ccc(-c4ccccc4)cc3)C(O)C(C)O2)Oc2ccc(cc2Cl)C1O)N(C)Cc1ccc(-c2ccccc2)cc1` (centres unmarked) [Compound 249], for which the “mean geometric MIC, Vancomycin Sensitive Strains” value in experiment [1] was 3.5 µg/mL. For the same molecule, the MIC is 64 µg/mL (≈ 30.6 µM) in experiment [2]; more than 64 µg/mL in experiment [3]; 0.5 µg/mL (≈ 0.239 µM) in experiment [4]; more than 64 µg/mL in experiment [5]; more than 64 µg/mL in experiment [6]; 4 µg/mL (≈ 1.91 µM) in experiment [7]. Besides, the MIC in experiment [8] was more than 64 µg/mL; against Entercoccus faecium 276, more than 64 µg/mL; in [9] it was 8 µg/mL (≈ 3.83 µM); in [10] it was 32 µg/mL (≈ 15.3 µM); in experiment [11], more than 64 µg/mL; in experiment [12], more than 64 µg/mL. Besides, the MIC in the experiment with Escherichia coli EC14 is more than 64 µg/mL; in experiment [13] it was 1 µg/mL (≈ 0.478 µM); in [14], more than 64 µg/mL; in experiment [15], 32 µg/mL (≈ 15.3 µM); in the experiment with Entercoccus faecium 180, 16 µg/mL (≈ 7.65 µM); in [16] it was more than 64 µg/mL. Further, the MIC (against Entercoccus faecium 2041; in experiment [17]; in experiment [20]; in experiment [18]) was more than 64 µg/mL throughout. In experiment [19], the “mean geometric MIC, Vancomycin Resistant Strains” value was 11 µg/mL.
As to `CC(C)CC(C(=O)NC1C(=O)NC(CC(N)=O)C(=O)NC2C(=O)NC3C(=O)NC(C(=O)NC(C(=O)O)c4cc(O)cc(O)c4-c4cc3ccc4O)C(OC3CC(C)(N)C(O)C(C)O3)c3ccc(c(Cl)c3)Oc3cc2cc(c3OC2OC(CO)C(O)C(O)C2OC2CC(C)(N)C(O)C(C)O2)Oc2ccc(cc2Cl)C1O)N(C)Cc1ccc(-c2ccccc2)cc1` (centres unmarked) [Compound 250], the “mean geometric MIC, Vancomycin Sensitive Strains” value in experiment [1] was determined as 0.44 µg/mL. The MIC is 0.25 µg/mL (≈ 0.142 µM) in experiment [2]; not above 0.06 µg/mL in experiment [3]; not above 0.06 µg/mL in [4]; not above 0.06 µg/mL in experiment [5]; 0.125 µg/mL (≈ 0.0711 µM) in [6]; not above 0.06 µg/mL in [7]. The MIC was not above 0.06 µg/mL in [8]; not above 0.06 µg/mL against Entercoccus faecium 276; not above 0.06 µg/mL in experiment [9]; not above 0.06 µg/mL in experiment [10]; not above 0.06 µg/mL in experiment [11]; more than 64 µg/mL in [12]. Moreover, the MIC against Escherichia coli EC14 was more than 64 µg/mL; in [13], not above 0.06 µg/mL; in [14], 4 µg/mL (≈ 2.27 µM); in experiment [15], 0.25 µg/mL (≈ 0.142 µM); against Entercoccus faecium 180 it was 2 µg/mL (≈ 1.14 µM); in experiment [16], 4 µg/mL (≈ 2.27 µM). Moreover, the MIC was not above 0.06 µg/mL against Entercoccus faecium 2041, 2 µg/mL (≈ 1.14 µM) in experiment [17], not above 0.06 µg/mL in experiment [20] and not above 0.06 µg/mL in experiment [18]. In addition, in [19], the “mean geometric MIC, Vancomycin Resistant Strains” value is 16 µg/mL.
